Data on three molecules can be found in ChEMBL document CHEMBL1122920, “Synthesis and pharmacological evaluation of cis-2,3,3a,4,5,6,7,7a-octahydro-3-oxoisoxazolo[5,4-c]pyridine: a structural analogue of the GABA agonist THIP” (J Med Chem, 1985).

The structures appear in SMILES notation.

One may read the IC50 as the midpoint of a concentration-inhibition curve. Low readings indicate greater potency in that assay, high ones weaker potency in that assay.

One test relates to Mus musculus. Briefly: Tested for the antagonism of bicuculline -induced convulsions in female mice intraperitoneally. The class given is functional. The following applies: ip, read-out: ID50 (the source's name).
Test [1] addresses GABA-A receptor; anion channel. Put plainly: Displacement of [3H]- muscimol in cerebellar tissue of male rats. (In general: Displacement assays read how much labelled ligand stays bound in the presence of the test substance.)
Another test is filed under the species Rattus norvegicus. Put plainly: Tested for its GABA agonistic activity against spontaneous firing in explants from cerebellum of 2-4 day old rats. The test is classed as functional.

Turning to `O=C1NOC2CNCCC12` (cis isomer), in the test with Mus musculus, the ED50 was over 56 mg/kg. Also, in test [1], the IC50 is over 1000 nM.
As to `Oc1noc2c1CCNC2` [GABOXADOL], the ED50 in the test with Mus musculus was 1.9 mg/kg.
On to `NCc1cc(O)no1` [MUSCIMOL], for which the ED50 with Mus musculus worked out at 0.76 mg/kg. For the same molecule, in the test filed under Rattus norvegicus, the “Decrease of spontaneous firing rate” value is on record as “>=1e-06 M”. Besides, in test [1], the IC50 is 3 nM.
